How the values were obtained:
[1] = tested on: A549-ACE2 infected with SARS-CoV-2; assay: morphology score (similarity to uninfected cells); higher = more like uninfected cells; conditions: 24 h
[2] = tested on: HepG2; assay: drug sensitivity score (DSS) for viability; higher = more toxic; extreme values may be limits of the assay; conditions: 72 h
[3] = tested on: Caco-2; assay: as above; conditions: 72 h
[4] = tested on: U2OS; assay: as above; conditions: 72 h
[5] = tested on: Calu-3; assay: as above; conditions: 72 h
[6] = tested on: HepG2; assay: cell viability relative to DMSO; higher = less toxic; conditions: 72 h
[7] = tested on: Caco-2; assay: as above; conditions: 72 h
[8] = tested on: U2OS; assay: as above; conditions: 72 h
[9] = tested on: Calu-3; assay: as above; conditions: 72 h
[10] = tested on: A549-ACE2; assay: drug-induced phospholipidosis relative to tamoxifen; higher = more phospholipidosis
[11] = tested on: HepG2; assay: relative viability EC50 (midpoint between 100% and the lowest measured viability); higher = less toxic; conditions: 72 h
[12] = tested on: Caco-2; assay: as above; conditions: 72 h
[13] = tested on: U2OS; assay: as above; conditions: 72 h
[14] = tested on: Calu-3; assay: as above; conditions: 72 h
[15] = tested on: A549-ACE2 infected with SARS-CoV-2; assay: cell count relative to DMSO; higher = less toxic; conditions: 24 h
[16] = tested on: A549-ACE2 infected with SARS-CoV-2; assay: SARS-CoV-2 infection rate relative to DMSO; higher = more infection; conditions: 24 h
[17] = tested on: Vero E6; assay: drug sensitivity score (DSS) for viability; higher = more toxic; extreme values may be limits of the assay; conditions: 72 h
[18] = tested on: Vero E6; assay: cell viability relative to DMSO; higher = less toxic; conditions: 72 h
[19] = tested on: A549-ACE2; assay: phospholipidosis EC50; higher = less potent phospholipidosis inducer
[20] = tested on: Vero E6; assay: relative viability EC50 (midpoint between 100% and the lowest measured viability); higher = less toxic; conditions: 72 h

OCCN1C[C@H](O)[C@@H](O)[C@H](O)[C@H]1CO [miglitol]
Conditions	SARS-CoV-2 infection rate, [16] [%]	cell count, [15] [%]	cell viability, [6] [%]	cell viability, [7] [%]	cell viability, [8] [%]	cell viability, [9] [%]	morphology score, [1]
1 nM	–	–	94.6	98.8	105	97.8	–
10 nM	–	–	114	99.2	99	95.7	–
100 nM	–	–	89.6	96.1	102	95.1	–
0.3 µM	94	106	–	–	–	–	0.36
1000 nM	–	–	103	101	98.5	110	–
3 µM	102	100	–	–	–	–	0.01
10 µM	103	100	–	–	–	–	0.02
10000 nM	–	–	101	94.7	103	96.2	–
30 µM	111	89	–	–	–	–	-0.07

Conditions	drug sensitivity score	relative viability EC50 [µM]
[2]	0	–
[3]	0	–
[4]	0	–
[5]	0	–
[11]	–	> 10
[12]	–	> 10
[13]	–	> 10
[14]	–	> 10

drug-induced phospholipidosis [%], [10]
Conditions	0.3 µM	0.833333 µM	3.33333 µM	6.66667 µM	10 µM	30 µM
24 h	3.38	-3.48	-1.06	-1.04	-2.08	-1.27
48 h	2.53	-2.84	1.36	1.25	2.47	2.29
72 h	3.37	-2.2	1.06	-0.466	0.978	2.7

CNCC[C@H](Oc1cccc2ccccc12)c1cccs1 [duloxetine]
Conditions	SARS-CoV-2 infection rate [%]	cell count [%]	cell viability [%]	morphology score	phospholipidosis EC50 [µM]
[1], 0.3 µM	–	–	–	0.09	–
[1], 3 µM	–	–	–	0.1	–
[1], 10 µM	–	–	–	0.8	–
[1], 30 µM	–	–	–	0.78	–
[6], 1 nM	–	–	96	–	–
[6], 10 nM	–	–	102	–	–
[6], 100 nM	–	–	99.4	–	–
[6], 1000 nM	–	–	101	–	–
[6], 10000 nM	–	–	88.2	–	–
[7], 1 nM	–	–	110	–	–
[7], 10 nM	–	–	100	–	–
[7], 100 nM	–	–	97.7	–	–
[7], 1000 nM	–	–	111	–	–
[7], 10000 nM	–	–	95.9	–	–
[9], 1 nM	–	–	103	–	–
[9], 10 nM	–	–	97.1	–	–
[9], 100 nM	–	–	92.4	–	–
[9], 1000 nM	–	–	90.9	–	–
[9], 10000 nM	–	–	78.8	–	–
[15], 0.3 µM	–	101	–	–	–
[15], 3 µM	–	100	–	–	–
[15], 10 µM	–	119	–	–	–
[15], 30 µM	–	119	–	–	–
[16], 0.3 µM	104	–	–	–	–
[16], 3 µM	94	–	–	–	–
[16], 10 µM	37	–	–	–	–
[16], 30 µM	9	–	–	–	–
[18], 1 nM	–	–	106	–	–
[18], 10 nM	–	–	100	–	–
[18], 100 nM	–	–	101	–	–
[18], 1000 nM	–	–	93.7	–	–
[18], 10000 nM	–	–	91	–	–
[19], 24 h	–	–	–	–	9.15
[19], 48 h	–	–	–	–	9.16
[19], 72 h	–	–	–	–	15.6

Conditions	drug sensitivity score	relative viability EC50 [µM]
[2]	0	–
[3]	0	–
[5]	1.3	–
[11]	–	> 10
[12]	–	> 10
[14]	–	> 10
[17]	0	–
[20]	–	> 10

drug-induced phospholipidosis [%], [10]
Conditions	0.3 µM	0.833333 µM	3.33333 µM	6.66667 µM	10 µM	30 µM
24 h	3.9	1.59	17.6	53.6	65.6	111
48 h	2.99	-2.35	15.6	55.1	61.6	109
72 h	5.95	2.92	12.5	44.6	51.8	110

CCN(CC)CCOc1ccc(/C(=C(\Cl)c2ccccc2)c2ccccc2)cc1 [clomifene]
Conditions	SARS-CoV-2 infection rate [%]	cell count [%]	cell viability [%]	morphology score	phospholipidosis EC50 [µM]
[1], 0.1 µM	–	–	–	-0.09	–
[1], 0.3 µM	–	–	–	0.35	–
[1], 1 µM	–	–	–	0.5	–
[1], 3 µM	–	–	–	0.8	–
[6], 1 nM	–	–	90.5	–	–
[6], 10 nM	–	–	89.9	–	–
[6], 100 nM	–	–	105	–	–
[6], 1000 nM	–	–	96	–	–
[6], 10000 nM	–	–	26.5	–	–
[7], 1 nM	–	–	84.4	–	–
[7], 10 nM	–	–	100	–	–
[7], 100 nM	–	–	99.1	–	–
[7], 1000 nM	–	–	96.4	–	–
[7], 10000 nM	–	–	61.1	–	–
[8], 1 nM	–	–	96.1	–	–
[8], 10 nM	–	–	99.4	–	–
[8], 100 nM	–	–	96.3	–	–
[8], 1000 nM	–	–	103	–	–
[8], 10000 nM	–	–	79.3	–	–
[9], 1 nM	–	–	100	–	–
[9], 10 nM	–	–	101	–	–
[9], 100 nM	–	–	102	–	–
[9], 1000 nM	–	–	90.4	–	–
[9], 10000 nM	–	–	10.8	–	–
[15], 0.1 µM	–	101	–	–	–
[15], 0.3 µM	–	106	–	–	–
[15], 1 µM	–	113	–	–	–
[15], 3 µM	–	117	–	–	–
[16], 0.1 µM	102	–	–	–	–
[16], 0.3 µM	84	–	–	–	–
[16], 1 µM	75	–	–	–	–
[16], 3 µM	31	–	–	–	–
[18], 1 nM	–	–	94.7	–	–
[18], 10 nM	–	–	95.5	–	–
[18], 100 nM	–	–	91.9	–	–
[18], 1000 nM	–	–	101	–	–
[18], 10000 nM	–	–	77.4	–	–
[19], 24 h	–	–	–	–	0.972
[19], 48 h	–	–	–	–	3
[19], 72 h	–	–	–	–	4.75

Conditions	drug sensitivity score	relative viability EC50 [µM]
[2]	4.6	–
[3]	2.5	–
[4]	0.5	–
[5]	6.5	–
[11]	–	2.75
[13]	–	> 10
[14]	–	2.27
[17]	0.7	–
[20]	–	> 10

drug-induced phospholipidosis [%], [10]
Conditions	0.3 µM	0.833333 µM	3.33333 µM	6.66667 µM	10 µM	30 µM
24 h	9.43	34.4	86	104	115	47.6
48 h	7.92	29.7	72.8	101	120	–
72 h	9.07	23.5	62.7	94.3	144	–

Reference: the supplement of paper PMC13380429
